Several values for one entry are separate records, joined by “and”; a condition that tells them apart may be missing. Identical values can stand only once. ± gives the expanded uncertainty stated by the source.
Details: Fluid (supercritical or subcritical phases), Buoyancy - hydrostatic balance with magnetic suspension - one sinker

N#N [nitrogen]
Details	mass density
298.12 K, 32109 kPa	311.953 ± 0.15 kg/m3
298.22 K, 30959 kPa	303.674 ± 0.15 kg/m3
298.23 K, 10976 kPa	123.118 ± 0.07 kg/m3
298.23 K, 12976 kPa	144.452 ± 0.079 kg/m3
298.23 K, 16971 kPa	185.161 ± 0.096 kg/m3
298.23 K, 19010 kPa	204.785 ± 0.1 kg/m3
298.23 K, 20970 kPa	222.928 ± 0.11 kg/m3
298.23 K, 22971 kPa	240.653 ± 0.12 kg/m3
298.23 K, 26968 kPa	273.675 ± 0.14 kg/m3
298.23 K, 26969 kPa	273.679 ± 0.14 kg/m3
298.23 K, 28965 kPa	289.039 ± 0.14 kg/m3
298.23 K, 28966 kPa	289.035 ± 0.14 kg/m3
298.24 K, 11019 kPa	123.569 ± 0.07 kg/m3
298.24 K, 13017 kPa	144.868 ± 0.079 kg/m3
298.24 K, 14976 kPa	165.17 ± 0.088 kg/m3
298.24 K, 17014 kPa	185.557 ± 0.096 kg/m3
298.24 K, 18975 kPa	204.467 ± 0.1 kg/m3
298.24 K, 21004 kPa	223.219 ± 0.11 kg/m3
298.24 K, 22992 kPa	240.817 ± 0.12 kg/m3
298.24 K, 24970 kPa	257.55 ± 0.13 kg/m3
298.24 K, 24971 kPa	257.546 ± 0.13 kg/m3
298.25 K, 15014 kPa	165.544 ± 0.088 kg/m3
298.33 K, 30945 kPa	303.445 ± 0.15 kg/m3
348.21 K, 28966 kPa	244.176 ± 0.12 kg/m3
348.23 K, 17010 kPa	154.974 ± 0.11 kg/m3
348.23 K, 32959 kPa	269.893 ± 0.13 kg/m3
348.24 K, 18974 kPa	170.907 ± 0.093 kg/m3
348.24 K, 26968 kPa	230.548 ± 0.12 kg/m3
348.24 K, 28967 kPa	244.162 ± 0.12 kg/m3
348.25 K, 10981 kPa	103.086 ± 0.18 kg/m3
348.25 K, 13016 kPa	121.065 ± 0.07 kg/m3
348.25 K, 22970 kPa	201.759 ± 0.32 kg/m3
348.25 K, 24970 kPa	216.421 ± 0.13 kg/m3
348.25 K, 26979 kPa	230.612 ± 0.12 kg/m3
348.25 K, 30963 kPa	257.253 ± 0.13 kg/m3 and 257.258 ± 0.13 kg/m3
348.26 K, 15015 kPa	138.272 ± 0.074 kg/m3
348.26 K, 16972 kPa	154.648 ± 0.11 kg/m3
348.26 K, 20971 kPa	186.577 ± 0.31 kg/m3
348.27 K, 11019 kPa	103.42 ± 0.18 kg/m3
348.27 K, 21013 kPa	186.886 ± 0.31 kg/m3
348.28 K, 12976 kPa	120.712 ± 0.069 kg/m3
348.28 K, 14976 kPa	137.928 ± 0.073 kg/m3
348.28 K, 19011 kPa	171.174 ± 0.093 kg/m3
348.28 K, 23006 kPa	202.007 ± 0.32 kg/m3
348.29 K, 25001 kPa	216.612 ± 0.13 kg/m3
398.17 K, 21012 kPa	161.802 ± 0.082 kg/m3
398.19 K, 23005 kPa	175.071 ± 0.088 kg/m3
398.21 K, 27000 kPa	200.503 ± 0.1 kg/m3
398.22 K, 19011 kPa	148.062 ± 0.076 kg/m3
398.22 K, 28993 kPa	212.616 ± 0.1 kg/m3
398.22 K, 32961 kPa	235.672 ± 0.12 kg/m3
398.23 K, 25002 kPa	187.957 ± 0.094 kg/m3
398.24 K, 20972 kPa	161.499 ± 0.082 kg/m3
398.24 K, 26967 kPa	200.287 ± 0.1 kg/m3
398.24 K, 28966 kPa	212.445 ± 0.1 kg/m3
398.25 K, 12976 kPa	104.354 ± 0.057 kg/m3
398.25 K, 22969 kPa	174.806 ± 0.088 kg/m3
398.26 K, 24969 kPa	187.737 ± 0.094 kg/m3
398.26 K, 30962 kPa	224.219 ± 0.11 kg/m3
398.27 K, 30977 kPa	224.298 ± 0.11 kg/m3
398.28 K, 14977 kPa	119.222 ± 0.065 kg/m3
398.28 K, 18975 kPa	147.786 ± 0.076 kg/m3
398.29 K, 16973 kPa	133.67 ± 0.07 kg/m3
398.3 K, 13014 kPa	104.623 ± 0.057 kg/m3
398.32 K, 11005 kPa	89.328 ± 0.051 kg/m3
398.36 K, 17012 kPa	133.928 ± 0.07 kg/m3
398.39 K, 15006 kPa	119.391 ± 0.065 kg/m3

[Ar] [argon]
Details	mass density [kg/m3]
298.2 K, 30957 kPa	499.118 ± 0.25
298.22 K, 26965 kPa	444.81 ± 0.22
298.22 K, 28963 kPa	472.591 ± 0.24
298.23 K, 10975 kPa	185.811 ± 0.11
298.23 K, 12977 kPa	220.515 ± 0.12
298.23 K, 14975 kPa	254.862 ± 0.14
298.23 K, 18968 kPa	321.888 ± 0.17
298.23 K, 20970 kPa	354.268 ± 0.18
298.23 K, 22969 kPa	385.599 ± 0.2
298.23 K, 24967 kPa	415.802 ± 0.21
298.24 K, 16973 kPa	288.723 ± 0.15
348.19 K, 30960 kPa	409.077 ± 0.2
348.21 K, 10976 kPa	153.363 ± 0.077
348.21 K, 19007 kPa	262.654 ± 0.14
348.21 K, 28963 kPa	386.293 ± 0.19
348.22 K, 18971 kPa	262.184 ± 0.14
348.22 K, 28964 kPa	386.289 ± 0.19
348.23 K, 17005 kPa	236 ± 0.42
348.24 K, 15014 kPa	209.051 ± 0.29
348.24 K, 16969 kPa	235.508 ± 0.42
348.24 K, 26966 kPa	362.782 ± 1.3
348.24 K, 30961 kPa	409.019 ± 0.2
348.25 K, 12974 kPa	181.049 ± 0.34
348.25 K, 32887 kPa	430.274 ± 0.21
348.26 K, 21009 kPa	288.719 ± 0.17
348.26 K, 24967 kPa	338.568 ± 0.87
348.27 K, 14970 kPa	208.427 ± 0.29
348.27 K, 20969 kPa	288.199 ± 0.17
348.27 K, 22970 kPa	313.733 ± 0.19
348.27 K, 26989 kPa	363.019 ± 1.3
348.28 K, 11019 kPa	153.917 ± 0.078
348.28 K, 13012 kPa	181.556 ± 0.34
348.28 K, 25000 kPa	338.949 ± 0.87
348.29 K, 23010 kPa	314.199 ± 0.19
397.91 K, 12975 kPa	155.101 ± 0.085
397.98 K, 14981 kPa	178.323 ± 0.096
398.1 K, 24969 kPa	288.472 ± 0.14
398.17 K, 16979 kPa	201.05 ± 0.11
398.19 K, 30985 kPa	349.444 ± 0.17
398.2 K, 28999 kPa	329.764 ± 0.17
398.21 K, 32960 kPa	368.494 ± 0.18
398.23 K, 26971 kPa	309.171 ± 0.17
398.23 K, 30962 kPa	349.179 ± 0.17
398.24 K, 11017 kPa	132.022 ± 0.076
398.24 K, 19010 kPa	223.818 ± 0.11
398.25 K, 21010 kPa	245.897 ± 0.12
398.26 K, 13011 kPa	155.367 ± 0.085
398.26 K, 23005 kPa	267.5 ± 0.13
398.28 K, 28964 kPa	329.33 ± 0.16
398.3 K, 17005 kPa	201.261 ± 0.11
398.31 K, 15013 kPa	178.513 ± 0.097
398.35 K, 27004 kPa	309.394 ± 0.15
398.47 K, 25004 kPa	288.536 ± 0.14
398.61 K, 18975 kPa	223.208 ± 0.12
398.87 K, 20975 kPa	245.092 ± 0.13
398.92 K, 22970 kPa	266.619 ± 0.14

— the NIST ThermoML archive (doi:10.1016/j.jct.2015.07.014)
